According to patent US20240391862A1, “(1,4,5-TRISUBSTITUTED-1H-PYRAZOL-3-YL)OXY-2-ALKOXY ALKYL ACIDS AND THEIR DERIVATIVES, THEIR SALTS AND THEIR USE AS HERBICIDAL AGENTS” (Bayer AKtiengesellschaft, priority 2021, published 2024):

Columns and labels:
various unwanted plants [1] = test: Post-emergence effect against various unwanted plants (PO): comparative test of I-01 with compounds from WO2020/245044 (Tables 41a, 41b) and summary statements; format: in vivo; details: comparative test
Protocol: Seeds of monocotyledonous and dicotyledonous weeds and crop plants are placed in sandy loam in plastic or organic planting pots, covered with soil and cultivated in a greenhouse under controlled growth conditions. 2 to 3 weeks after sowing, the trial plants are treated at the one-leaf stage. The compounds of the invention, formulated in the form of wettable powders (WP) or as emulsion concentrates (EC), are then sprayed onto the green parts of the plants as aqueous suspension or emulsion with addition of 0.5% additive at a water application rate of 600 l/ha (converted). After the test plants have been kept in the greenhouse under optimum growth conditions for about 3 weeks, the activity of the preparations is rated visually in comparison to untreated controls. For example, 100% activity=the plants have died, 0% activity=like control plants. […] Tables 41a and 41b below show the effects of the inventive compound (I-01) with structurally similar compounds (WO2020/245044) on various harmful plants at an application rate corresponding to 320 g/ha or less, which have been obtained by the trial procedure specified hereinafter. The inventive compound (I-01) differs here by variance of a significant structural feature from the structurally similar compound with regard to the R^2 radical. Seeds of monocotyledonous and dicotyledonous weeds and crop plants are placed in sandy loam in plastic or organic planting pots, covered with soil and cultivated in a greenhouse under controlled growth conditions. 2 to 3 weeks after sowing, the trial plants are treated at the one-leaf stage. The compounds of the invention, formulated in the form of wettable powders (WP) or as emulsion concentrates (EC), are then sprayed onto the green parts of the plants as aqueous suspension or emulsion with addition of 0.5% additive at a water application rate of 600 l/ha (converted). After the test plants have been kept in the greenhouse under optimum growth conditions for about 3 weeks, the activity of the preparations is rated visually in comparison to untreated controls. For example, 100% activity=the plants have died, 0% activity=like control plants. Effects/crop compatibilities of selected compounds (see Table 39) on various harmful plants at an application rate corresponding to 80 to 320 g/ha that have been obtained by the trial procedure specified hereinafter are shown in Tables 41a and 41b below.

various unwanted plants [2] = test: Pre-emergence effect against various unwanted plants (PE): comparative test of I-01 with compounds from WO2020/245044 (Tables 40a, 40b) and summary statements; format: in vivo; details: comparative test
From the text: Seeds of monocotyledonous and dicotyledonous weed plants and crop plants are placed in plastic or organic planting pots and covered with soil. The compounds of the invention, formulated in the form of wettable powders (WP) or as emulsion concentrates (EC), are then applied to the surface of the covering soil as aqueous suspension or emulsion with addition of 0.5% additive at a water application rate equivalent to 600 l/ha. After the treatment, the pots are placed in a greenhouse and kept under good growth conditions for the trial plants. After about 3 weeks, the effect of the preparations is scored visually in comparison with untreated controls as percentages. For example, 100% activity=the plants have died, 0% activity=like control plants. Tables 40a and 40b below show the effects of the inventive compound (I-01) with structurally similar compounds (from WO2020/245044) on various harmful plants at an application rate corresponding to 320 g/ha or less, which have been obtained by the trial procedure specified hereinafter. The inventive compound (I-01) differs here by variance of a significant structural feature from the structurally similar compound with regard to the R^2 radical. Seeds of monocotyledonous and dicotyledonous weed plants and crop plants are placed in plastic or organic planting pots and covered with soil. The compounds of the invention, formulated in the form of wettable powders (WP) or as emulsion concentrates (EC), are then applied to the surface of the covering soil as aqueous suspension or emulsion with addition of 0.5% additive at a water application rate equivalent to 600 l/ha. After the treatment, the pots are placed in a greenhouse and kept under good growth conditions for the trial plants. After about 3 weeks, the effect of the preparations is scored visually in comparison with untreated controls as percentages. For example, 100% activity=the plants have died, 0% activity=like control plants. Effects/crop compatibilities of selected compounds (Table 39) on various harmful plants at an application rate corresponding to 80 to 320 g/ha that have been obtained by the trial procedure specified hereinabove are shown in Tables 40a and 40b below.

| Structure (SMILES) | Post-emergence effect, Effect %, ALOMY (various unwanted plants [1]; 80 g/ha) [%] | Post-emergence effect, Effect %, ALOMY (various unwanted plants [1]; 320 g/ha) [%] | Post-emergence effect, Effect %, AVEFA (various unwanted plants [1]; 80 g/ha) [%] | Post-emergence effect, Effect %, AVEFA (various unwanted plants [1]; 320 g/ha) [%] | Post-emergence effect, Effect %, ECHCG (various unwanted plants [1]; 80 g/ha) [%] | Post-emergence effect, Effect %, ECHCG (various unwanted plants [1]; 320 g/ha) [%] | Post-emergence effect, Effect %, LOLRI (various unwanted plants [1]; 80 g/ha) [%] | Post-emergence effect, Effect %, LOLRI (various unwanted plants [1]; 320 g/ha) [%] | Post-emergence effect, Effect %, SETVI (various unwanted plants [1]; 80 g/ha) [%] | Post-emergence effect, Effect %, SETVI (various unwanted plants [1]; 320 g/ha) [%] | Pre-emergence effect, Effect %, ALOMY (various unwanted plants [2]; ALOMY, 320 g/ha) [%] | Pre-emergence effect, Effect %, ECHCG (various unwanted plants [2]; 80 g/ha) [%] | Pre-emergence effect, Effect %, ECHCG (various unwanted plants [2]; 320 g/ha) [%] | Pre-emergence effect, Effect %, LOLRI (various unwanted plants [2]; 80 g/ha) [%] | Pre-emergence effect, Effect %, LOLRI (various unwanted plants [2]; 320 g/ha) [%] | Pre-emergence effect, Effect %, MATIN (various unwanted plants [2]; 80 g/ha) [%] | Pre-emergence effect, Effect %, MATIN (various unwanted plants [2]; 320 g/ha) [%] | Pre-emergence effect, Effect %, POLCO (various unwanted plants [2]; POLCO, 80 g/ha) [%] | Pre-emergence effect, Effect %, SETVI (various unwanted plants [2]; SETVI, 320 g/ha) [%] |
| --- | --- | --- | --- | --- | --- | --- | --- | --- | --- | --- | --- | --- | --- | --- | --- | --- | --- | --- | --- |
| CCCC(Oc1nn(-c2ccccc2F)c(-c2ccc(F)nc2)c1Br)C(=O)OCC (stereo not drawn) [A] | 0 | 50 | 30 | 40 | 50 | 80 | 0 | 20 | 20 | 70 | 60 | 0 | 80 | 20 | 30 | 0 | 30 | 20 | 70 |
| CCOC(=O)COc1nn(-c2ccccc2F)c(-c2ccc(F)nc2)c1Br [B] | 70 | – | 80 | – | 50 | – | 30 | – | 70 | – | – | – | – | – | – | – | – | – | – |
